Reference: PubChem BioAssay (NCI)
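Values below derive from 48-hour exposures of cells grown in 96-well plates, with endpoints linearly interpolated between the two concentrations bracketing the appropriate inhibition level. TGI denotes the concentration required for complete inhibition of growth.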

Assays:
Experiment in all cases: NCI-60 cell line screen, 48 h
OVCAR-4 ovarian = system: OVCAR-4 ovarian
CCRF-CEM leukemia = system: CCRF-CEM leukemia
SF-295 CNS = system: SF-295 CNS
OVCAR-3 ovarian = system: OVCAR-3 ovarian
T-47D breast = system: T-47D breast
SNB-75 CNS = system: SNB-75 CNS
UACC-62 melanoma = system: UACC-62 melanoma
MCF7 breast = system: MCF7 breast
NCI/ADR-RES ovarian = system: NCI/ADR-RES ovarian
NCI-H522 lung = system: NCI-H522 lung
SN12C renal = system: SN12C renal
ACHN renal = system: ACHN renal
A549 NSCLC = system: A549 NSCLC
MALME-3M melanoma = system: MALME-3M melanoma
A498 renal = system: A498 renal

SMILES | TGI (OVCAR-4 ovarian) [µM] | TGI (CCRF-CEM leukemia) [µM] | TGI (SF-295 CNS) [µM] | TGI (OVCAR-3 ovarian) [µM] | TGI (T-47D breast) [µM] | TGI (SNB-75 CNS) [µM] | TGI (UACC-62 melanoma) [µM] | TGI (MCF7 breast) [µM] | TGI (NCI/ADR-RES ovarian) [µM] | TGI (NCI-H522 lung) [µM] | TGI (SN12C renal) [µM] | TGI (ACHN renal) [µM] | TGI (A549 NSCLC) [µM] | TGI (MALME-3M melanoma) [µM] | TGI (A498 renal) [µM]
O=C1NC(=O)C(F)(n2cc(F)c(=O)[nH]c2=O)C(O)N1 (stereo not given) | > 10 | > 10 | > 10 | > 10 | > 10 | > 10 | > 10 | > 10 | > 10 | > 10 | > 10 | > 10 | > 10 | > 10 | > 10
CC(C)OC(=O)c1ccc(CCC2=CC(=O)C=CC2=O)cc1 | 29.6 | 10.9 | 90.9 | 17 | 4.45 | 62.5 | 28.8 | 47.7 | 22.1 | 4.02 | 26.5 | 18.8 | > 79.7 | 15.9 | 45.3
O=C1CSC(/C=C/c2ccccc2)N1c1nc2cc3sc(N4C(=O)CSC4/C=C/c4ccccc4)nc3cc2s1 (stereo not given) | > 100 | > 63.5 | > 100 | > 100 | > 100 | > 100 | > 100 | > 100 | > 100 | > 100 | > 100 | > 100 | > 100 | > 100 | > 100
CCCCNC(=O)c1cc2c(cc1Cl)Sc1nccn1S2(=O)=O | > 100 | > 100 | > 100 | > 100 | > 100 | > 100 | > 100 | > 100 | > 100 | > 100 | > 100 | > 100 | > 100 | > 100 | > 100
C=C=C(CC1CCCCC1=O)S(=O)(=O)c1ccccc1 (stereo not given) | > 10 | 7.24 | > 10 | > 10 | > 10 | > 10 | > 10 | > 10 | > 10 | 6.71 | > 10 | > 10 | > 10 | > 10 | > 10
O=C(NC1(c2cc3ccccc3s2)CCCCC1)C1CCC1 | > 100 | > 100 | > 100 | > 100 | > 100 | > 100 | > 100 | > 100 | > 100 | > 100 | > 100 | > 100 | > 100 | > 100 | > 100
CC(=O)Nc1c(S(=O)(=O)c2ccccc2)c(C)c(C)n1CCN(C)C | > 100 | > 100 | > 100 | > 100 | > 100 | > 100 | > 100 | > 100 | > 100 | > 100 | > 100 | > 100 | > 100 | > 100 | > 100
CN(C)CCCN1C(=S)N(CCCN(C)C)c2c3ccccc3nc3c([N+](=O)[O-])ccc1c23 | 27.9 | > 100 | 23.7 | 24.4 | 31.6 | 23.1 | 24.3 | 19.4 | 27.9 | 10.5 | 18.1 | 16.1 | > 42.2 | 6.69 | 22.9
CCCCCCCCCCCCCCCCCc1cccc(OCOCCOC)c1C(=O)O | 34.8 | > 77.5 | 35.5 | 36.9 | 35.2 | 31.1 | 32.4 | 43.2 | 28.6 | 30 | 46.6 | 35.2 | 42.1 | 22.2 | 32.2
N=C1OC(CN2CCN(c3ccccc3)CC2)CN1C(=S)Nc1ccccc1 (stereo not given) | > 100 | > 100 | > 100 | > 100 | > 100 | > 100 | > 100 | > 100 | > 100 | > 100 | > 100 | > 100 | > 100 | > 100 | > 100
c1ccc2c(Cc3[nH]c4ccccc4c3Cc3c[nH]c4ccccc34)c[nH]c2c1 | 13.2 | 8.98 | 16.3 | 9.68 | 12.8 | 9.69 | > 32.4 | > 26.5 | 17.2 | 3.76 | 4.2 | > 36 | 21.6 | 6.3 | 5.73
CC(C)C1C(=O)N(c2c(F)c(F)c(F)c(F)c2F)C(=S)N1CCS(=O)c1ccccc1 (stereo not given) | 31.1 | 42.3 | 33.1 | 30.5 | 32.5 | > 58.7 | 34.9 | 35.3 | 40.8 | 12.6 | 31 | 37.1 | 40.1 | 30.2 | 30.6
